From patent publication US20110118209A1 (priority 2006, published 2011) come the findings set out here.

Each structure is given as a SMILES string. Read-outs that look alike come from different tables or passages of the source.

The subject of series [1] is primary rabbit kidney proximal tubule (RPT) cells.
Another series deals with L1210/0. It counts as in vivo, mice.
The next series has as its system P388/0. It counts as in vivo, mice.
Another series has as its system P388/CPA. It is filed as in vivo, mice.
For a further series, the system named is L1210/CPA. It counts as in vivo, mice.
Another series concerns human lox-IMVI melanoma. It is filed as in vivo.
The next series deals with B16 Melanoma. Further details: species or system mice. Particulars: mouse, in vivo.
Series [2] concerns mice. In words: Tolerability of IPM in tumor-bearing mice (Example 4 studies). It counts as in vivo. The note with it: IP and IV treatment. The source says: This example describes the evaluation of IPM against several different cancer cell lines implanted in mice.
In series [3] the test system is mice. Particulars: 75 mg/kg, either sex.
A short description of the next series: in vivo. The note with it: rat, po.
Where [4] appears, read: 200 mg/kg IP day 2 only, male CDF1 mice.
The mark [5] stands for this setting: 175 mg/kg IP day 1 only, female CDF1 mice.
Setting [6] is: 265 mg/kg IP day 1 only, female CDF1 mice.

Molecule `C=CC=O` [acrolein] returned an LD50 in [1] (rabbit) of 80 µM.
On to `O=P1(NCCCl)OCCC(OO)N1CCCl` (stereo not shown) [HIFA, 4-hydroperoxyifosfamide], for which the effect on viability result in series [1] was “did not significantly affect viability”.
Take `O=P1(NCCCl)OCCCN1CCCl` (stereo not shown) [Ifos, Ifosfamide]: the “Net log10 Reduction in tumor burden after therapy” value (shortened to “Net log10 Reduction”) in the series on L1210/0 (mouse, in vivo) stood at 8 log10; in the series with P388/0 (mouse, in vivo) it was 7 log10; in the series with P388/CPA (mouse, in vivo), 4 log10.
On to `O=P1(N(CCCl)CCCl)NCCCO1` (stereo not shown) [CPA, cyclophosphamide], for which the “Net log10 Reduction” value in the series on L1210/0 (setting [4]) turned out to be 7 log10; with L1210/CPA (setting [4]) it was 4 log10; in the series with P388/0 (setting [5]), 7 log10; in the series on P388/0 (setting [6]), 7 log10; with P388/CPA (setting [5]), 3 log10; in the series with P388/CPA (setting [6]), 3 log10. In addition, in the series with human lox-IMVI melanoma (40 mg/kg/dose IV Q1 D × 5, nude mice), the “Median Day of Death” value came to 42.0 days.
Take `O=P1(NCCCl)OCCC(O)N1CCCl` (stereo not shown) [4-hydroxyifosfamide]: the cell death result in series [1] is listed as “extensive cell death”.
For the molecule `O=P(O)(NCCCl)NCCCl` [IPM, N,N′-di(2-chloroethyl)phosphorodiamidic acid], the “Net log10 Reduction” value in the series with L1210/0 (mouse, in vivo) stood at 8 log10; in the series on L1210/CPA (mouse, in vivo) it was 7 log10; in the series on P388/CPA (mouse, in vivo) it was 7 log10. The “efficacy compared with CPA and Ifos” value in the series on B16 Melanoma is listed as “slightly inferior to CPA but better than Ifos”. In the series with human lox-IMVI melanoma (in vivo), the “Median Day of Death” value turned out to be 29.0 days. Besides, the tolerability entry in the series with mice [2] is “tolerated intraperitoneal (IP) and intravenous (IV) treatment with IPM well”. For the same molecule, the microscopic findings result with mice [3] is on record as “No obvious treatment-related microscopic findings”. For the same molecule, in the series “in vivo”, the LD50 fell in the range of 1400 to 3500 mg/kg.
`O=CCCl` [chloroacetaldehyde]: the “concentration of complete inhibition” value in series [1] (rabbit) turned out to be 75 µM.
